Experimental data as given in the Kinase Knowledgebase extract (Sharma et al. 2016).

The compounds below were run against PIK3CA (human) (UniProt P42336) (assay: Inhibition of PIK3CA Kinase Activity).
PIK3CA (human), sequence (P42336 whole entry, looked up): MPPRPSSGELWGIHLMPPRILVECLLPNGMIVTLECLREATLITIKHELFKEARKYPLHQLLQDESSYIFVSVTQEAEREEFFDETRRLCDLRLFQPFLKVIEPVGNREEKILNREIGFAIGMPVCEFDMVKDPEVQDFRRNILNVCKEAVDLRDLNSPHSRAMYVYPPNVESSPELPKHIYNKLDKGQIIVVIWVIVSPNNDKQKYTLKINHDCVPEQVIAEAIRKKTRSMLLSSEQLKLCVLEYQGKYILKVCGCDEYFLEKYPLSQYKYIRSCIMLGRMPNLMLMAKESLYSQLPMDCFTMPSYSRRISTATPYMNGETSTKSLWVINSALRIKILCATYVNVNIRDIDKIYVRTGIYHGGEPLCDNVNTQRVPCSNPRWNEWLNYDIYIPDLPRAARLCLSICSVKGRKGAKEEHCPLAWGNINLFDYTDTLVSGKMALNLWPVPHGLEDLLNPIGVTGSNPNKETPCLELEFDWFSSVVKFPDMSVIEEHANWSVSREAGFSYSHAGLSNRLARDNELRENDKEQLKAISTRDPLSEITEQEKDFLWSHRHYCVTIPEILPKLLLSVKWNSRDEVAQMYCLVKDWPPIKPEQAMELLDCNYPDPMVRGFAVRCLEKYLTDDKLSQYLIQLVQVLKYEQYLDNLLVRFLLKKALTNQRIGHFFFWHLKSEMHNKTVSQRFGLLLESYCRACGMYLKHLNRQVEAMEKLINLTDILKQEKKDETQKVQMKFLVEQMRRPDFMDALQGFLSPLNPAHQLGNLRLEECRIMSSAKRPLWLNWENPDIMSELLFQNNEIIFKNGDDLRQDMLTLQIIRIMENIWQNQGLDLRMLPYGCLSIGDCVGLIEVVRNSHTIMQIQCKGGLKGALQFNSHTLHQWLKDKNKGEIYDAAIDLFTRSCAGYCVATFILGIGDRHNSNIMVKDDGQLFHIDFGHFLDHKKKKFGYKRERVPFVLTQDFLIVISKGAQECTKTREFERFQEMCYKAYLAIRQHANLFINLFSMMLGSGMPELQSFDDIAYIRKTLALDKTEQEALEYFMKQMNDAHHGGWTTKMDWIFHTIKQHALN

| Compound | IC50 [nM] | IC80 [nM] |
| --- | --- | --- |
| c1ccc(-n2ncc3c(N4CCOCC4)nc(-c4cncnc4)nc32)cc1 | 440 | – |
| CCOC(=O)Nc1ccc(-c2nc(N3CCOCC3)c3cnn(C4CCN(C(=O)OCC)CC4)c3n2)cc1 | 6720 | – |
| Nc1ccc(-c2nc(N3CCOCC3)c3cn[nH]c3n2)cc1 | 1610 | – |
| c1ccc(CN2CCC(n3ncc4c(N5CCOCC5)nc(-c5cccc(-c6ccccc6)c5)nc43)CC2)cc1 | 10000 | – |
| c1ccc(CN2CCC(n3ncc4c(N5CCOCC5)nc(-c5ccc6ccccc6c5)nc43)CC2)cc1 | 8200 | – |
| O=C(c1cccc(C(F)(F)F)c1)N1CCC(n2ncc3c(N4CCOCC4)nc(-c4ccc5[nH]ccc5c4)nc32)CC1 | 1430 | – |
| c1ccc(CN2CCC(n3ncc4c(N5CCOCC5)nc(-c5ccc(-c6ccccc6)cc5)nc43)CC2)cc1 | 8570 | – |
| CNC(=O)Nc1ccc(-c2nc(N3CCOCC3)c3cnn(C4=CC[S+]([O-])CC4)c3n2)cc1 (centres undefined) | 80 | – |
| c1ccc(CN2CCC(n3ncc4c(N5CCOCC5)nc(-c5cccc6c5sc5ccccc56)nc43)CC2)cc1 | 8770 | – |
| NC(=O)Cc1cccc(-c2nc(N3CCOCC3)c3cnn(-c4ccccc4)c3n2)c1 | 357 | – |
| NC(=O)Nc1ccc(-c2nc(N3CCOCC3)c3cnn(C4CCN(C(=O)c5ccccc5)CC4)c3n2)cc1 | – | 84 |
| COC(=O)Nc1ccc(-c2nc(N3CCOCC3)c3cnn(C4CCN(C(=O)c5ccc(C#N)cc5)CC4)c3n2)cc1 | 999 | – |
| COC(=O)Nc1ccc(-c2nc(N3CCOCC3)c3cnn(C4CCN(Cc5ccc(F)nc5)CC4)c3n2)cc1 | 1200 | – |
| O=C(c1ccc(F)cc1)N1CCC(n2ncc3c(N4CCOCC4)nc(-c4ccc5[nH]ccc5c4)nc32)CC1 | 1750 | – |
| c1ccc(-n2ncc3c(N4CCOCC4)nc(-c4csc5ccccc45)nc32)cc1 | 10000 | – |
| CNC(=O)Nc1ccc(-c2nc(N3CCOCC3)c3cnn(C4CCN(C(N)=O)CC4)c3n2)cc1 | 66 | – |
| CNC(=O)Nc1ccc(-c2nc(N3CCOCC3)c3cnn(C4CCN(COC)CC4)c3n2)cc1 | 1560 | – |
| CN(C)C(=O)c1ccc(-c2nc(N3CCOCC3)c3cnn(C4CCN(Cc5ccccc5)CC4)c3n2)cc1 | 10000 | – |
| CC(=O)Nc1ccc(-c2nc(N3CCOCC3)c3cnn(C4CCCCO4)c3n2)cc1 (centres undefined) | 1650 | – |
| CN(C)c1cccc(-c2nc(N3CCOCC3)c3cnn(C4CCN(Cc5ccccc5)CC4)c3n2)c1 | 9130 | – |
| c1cc2cc(-c3nc(N4CCOCC4)c4cnn([C@H]5CCCNC5)c4n3)ccc2[nH]1 | 10000 | – |
| c1ccc(CN2CCC(n3ncc4c(N5CCOCC5)nc(-c5cccc6ccccc56)nc43)CC2)cc1 | 10000 | – |
| CC(C)(C)OC(=O)N1CCC(n2ncc3c(N4CCOCC4)nc(-c4ccc(NC(=O)Nc5cccnc5)cc4)nc32)CC1 | 32 | – |
| Clc1ccccc1CN1CCC(n2ncc3c(N4CCOCC4)nc(-c4ccc5[nH]ccc5c4)nc32)CC1 | 1700 | – |
| c1cc2cc(-c3nc(N4CCOCC4)c4cnn([C@@H]5CCCNC5)c4n3)ccc2[nH]1 | 10000 | – |
| O=C(O)c1cccc(-c2nc(N3CCOCC3)c3cnn(C4CCN(Cc5ccccc5)CC4)c3n2)c1 | 10000 | – |
| CN(C)C(=O)C=CCN1CCC(n2ncc3c(N4CCOCC4)nc(-c4ccc5[nH]ccc5c4)nc32)CC1 | 480 | – |
| CNC(=O)Nc1ccc(-c2nc(N3CCOCC3)c3cn[nH]c3n2)cc1 | 14 | – |
| CNC(=O)Nc1ccc(-c2nc(N3CCOCC3)c3cnn(C4=CCS(=O)(=O)CC4)c3n2)cc1 | 74 | – |
